Laboratory results from patent US11230540B2, “Substituted triazole derivatives and uses thereof” (Bayer Pharma Aktiengesellschaft, priority 2017, dated 2022).
Structures can show the parent of a compound that is named as a salt.

Assays:
human V1a receptor = target: T1, human V1a receptor (Homo sapiens, UniProt P37288); assay: Cellular in vitro assay for vasopressin receptor activity, V1a receptor cell line (aequorin luminescence); assay type: cell-based; settings: for IC50: CHO cell line transfected with human V1a receptor, [Arg8]-vasopressin at EC50 concentration, read-out: IC50 hV1a; for ratio IC50 hV2/hV1a: selectivity ratio of the IC50 values hV2/hV1a
T1 construct: expressed in transfected cells; host or cells: CHO K1 (Chinese hamster ovary), also stably transfected with a modified aequorin
T1 sequence (P37288 whole entry): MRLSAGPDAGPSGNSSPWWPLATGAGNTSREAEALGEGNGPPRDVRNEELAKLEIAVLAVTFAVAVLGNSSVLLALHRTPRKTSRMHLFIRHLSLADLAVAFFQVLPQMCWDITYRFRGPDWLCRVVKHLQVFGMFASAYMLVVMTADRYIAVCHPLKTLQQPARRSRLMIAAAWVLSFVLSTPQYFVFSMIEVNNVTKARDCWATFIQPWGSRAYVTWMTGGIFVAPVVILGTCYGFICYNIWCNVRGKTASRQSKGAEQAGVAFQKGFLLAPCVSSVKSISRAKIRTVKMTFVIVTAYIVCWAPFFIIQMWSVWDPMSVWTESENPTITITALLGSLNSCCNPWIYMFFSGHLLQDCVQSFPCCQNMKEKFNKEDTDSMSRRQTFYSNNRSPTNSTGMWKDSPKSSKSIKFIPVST
Description: (§1) B-1. Cellular In Vitro Assay for Determining Vasopressin Receptor Activity
(§2) The identification of agonists and antagonists of the V1a and V2 vasopressin receptors from humans, rats and dogs as well as the quantification of the activity of the compounds of the invention is carried out using recombinant cell lines. These cell lines originally derive from a hamster's ovary epithelial cell (Chinese Hamster Ovary, CHO K1, ATCC: American Type Culture Collection, Manassas, Va. 20108, USA). The test cell lines constitutively express the human, rat or dog V1a or V2 receptors. In case of the […] V1a receptors, cells are also stably transfected with a modified form of the calcium-sensitive photoproteins aequorin (human and rat V1a) or obelin (dog V1a), which, after reconstitution with the cofactor coelenterazine, emit light when there are increases in free calcium concentrations [Rizzuto R, Simpson A W, Brini M, Pozzan T, Nature 358, 325-327 (1992); Illarionov B A, Bondar V S, Illarionova V A, Vysotski E S, Gene 153 (2), 273-274 (1995)]. The resulting vasopressin receptor cells react to stimulation of the recombinantly expressed V1a receptors by intracellular release of calcium ions, which can be quantified by the resulting photoprotein luminescence. The Gs-coupled V2 receptors are stably transfected into cell lines expressing the gene for firefly luciferase under control of a CRE-responsible promoter. Activation of V2 receptors induces the activation of the CRE-responsive promoter via cAMP increase, thereby inducing the expression of firefly luciferase. The light emitted by photoproteins of V1a cell lines as well as the light emitted by firefly luciferase of V2 cell lines corresponds to the activation or inhibition of the respective vasopressin receptor. The bioluminescence of the cell lines is detected using a suitable luminometer [Milligan G, Marshall F, Rees S, Trends in Pharmacological Sciences 17, 235-237 (1996)].
Vasopressin V1a Receptor Cell Lines:
On the day before the assay, the cells are plated out in culture medium (DMEM/F12, 2% FCS, 2 mM glutamine, 10 mM HEPES, 5 μg/ml coelenterazine) in 384-well microtiter plates and kept in a cell incubator (96% humidity, 5% v/v CO2, 37° C.). On the day of the assay, test compounds in various concentrations are placed for 10 minutes in the wells of the microtiter plate before the agonist [Arg^8]-vasopressin at EC50 concentration is added. The resulting light signal is measured immediately in a luminometer.
(§3) Table 1A below lists individual IC50 values for the compounds of the invention (including racemic mixtures as well as separated enantiomers) that were obtained from cell lines transfected with the human V1a or V2 receptor: […]

human V2 receptor = target: T2, human V2 receptor (Homo sapiens, UniProt P30518); assay: Cellular in vitro assay for vasopressin receptor activity, V2 receptor cell line (CRE-luciferase); assay type: cell-based; settings: CHO cell line transfected with human V2 receptor; [Arg8]-vasopressin at EC50 concentration; read-out: IC50 hV2
T2 construct: expressed in transfected cells; host or cells: CHO K1 (Chinese hamster ovary) expressing firefly luciferase under a CRE-responsive promoter
T2 sequence (P30518 whole entry): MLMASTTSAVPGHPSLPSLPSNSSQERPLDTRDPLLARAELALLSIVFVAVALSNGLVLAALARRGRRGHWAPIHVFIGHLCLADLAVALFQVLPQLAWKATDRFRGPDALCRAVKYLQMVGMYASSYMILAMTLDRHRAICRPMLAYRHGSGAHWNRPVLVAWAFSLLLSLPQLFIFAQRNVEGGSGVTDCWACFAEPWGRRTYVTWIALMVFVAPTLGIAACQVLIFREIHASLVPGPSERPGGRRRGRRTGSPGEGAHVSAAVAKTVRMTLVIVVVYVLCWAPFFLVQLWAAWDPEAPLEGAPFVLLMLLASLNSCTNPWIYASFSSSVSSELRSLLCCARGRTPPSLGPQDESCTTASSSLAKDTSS
Description: as §1, §2
Vasopressin V2 Receptor Cell Lines:
On the day before the assay, the cells are plated out in culture medium (DMEM/F12, 2% FCS, 2 mM glutamine, 10 mM HEPES) in 384-well microtiter plates and kept in a cell incubator (96% humidity, 5% v/v CO2, 37° C.). On the day of the assay, test compounds in various concentrations and the agonist [Arg^8]-vasopressin at EC50 concentration are added together to the wells, and plates are incubated for 3 hours in a cell incubator. Upon addition of the cell lysis reagent Triton™ and the substrate luciferin, luminescence of firefly luciferase is measured in a luminometer.
as §3

| IC50 (human V1a receptor) [µM] | ratio IC50 hV2/hV1a (human V1a receptor) | IC50 (human V2 receptor) [µM] | Compound |
| --- | --- | --- | --- |
| 0.0015 | 190.0 | 0.285 | O=CN1CCC(NC(=O)c2nc(Cn3nc(-c4ccc(Cl)cc4)n(C[C@H](O)C(F)(F)F)c3=O)nn2-c2cnccc2Cl)C1 (mixture of isomers) [Example 13, 3-({3-(4-Chlorophenyl)-5-oxo-4-[(2S)-3,3,3-trifluoro-2-hydroxypropyl]-4,5-dihydro-1H-1,2,4-triazol-1-yl}methyl)-1-(4-chloropyridin-3-yl)-N-[1-formylpyrrolidin-3-yl]-1H-1,2,4-triazole-5-carboxamide] |
| 0.107 | 2.9 | 0.315 | O=CN1CCC(NC(=O)c2nc(Cn3nc(-c4ccc(Cl)cc4)n(C[C@H](O)C(F)(F)F)c3=O)nn2-c2cccnc2Cl)C1 (mixture of isomers) [Example 14, 3-({3-(4-Chlorophenyl)-5-oxo-4-[(2S)-3,3,3-trifluoro-2-hydroxypropyl]-4,5-dihydro-1H-1,2,4-triazol-1-yl}methyl)-1-(2-chloropyridin-3-yl)-N-[1-formylpyrrolidin-3-yl]-1H-1,2,4-triazole-5-carboxamide] |
| 0.29 | 1.5 | 0.435 | CC1(O)CCN(C(=O)c2nc(Cn3nc(-c4ccc(Cl)cc4)n(C[C@H](O)C(F)(F)F)c3=O)nn2CCC(F)(F)F)C1 (mixture of isomers) [Example 22, 5-(4-Chlorophenyl)-2-{[5-{[3-hydroxy-3-methylpyrrolidin-1-yl]carbonyl}-1-(3,3,3-trifluoropropyl)-1H-1,2,4-triazol-3-yl]methyl}-4-[(2S)-3,3,3-trifluoro-2-hydroxypropyl]-2,4-dihydro-3H-1,2,4-triazol-3-one] |
| 0.035 | 4.9 | 0.17 | O=C(c1nc(Cn2nc(-c3ccc(Cl)cc3)n(C[C@H](O)C(F)(F)F)c2=O)nn1CCC(F)(F)F)N1CCNC(C(F)(F)F)C1 (mixture of isomers) [Example 25, 5-(4-Chlorophenyl)-4-[(2S)-3,3,3-trifluoro-2-hydroxypropyl]-2-{[5-{[3-(trifluoromethyl)piperazin-1-yl]carbonyl}-1-(3,3,3-trifluoropropyl)-1H-1,2,4-triazol-3-yl]methyl}-2,4-dihydro-3H-1,2,4-triazol-3-one] |
| 0.135 | 8.8 | 1.19 | NC(CNC(=O)c1nc(Cn2nc(-c3ccc(Cl)cc3)n(C[C@H](O)C(F)(F)F)c2=O)nn1-c1ncccc1C(F)(F)F)C(F)(F)F (mixture of isomers) [Example 51, N-(2-Amino-3,3,3-trifluoropropyl)-3-({3-(4-chlorophenyl)-5-oxo-4-[(2S)-3,3,3-trifluoro-2-hydroxypropyl]-4,5-dihydro-1H-1,2,4-triazol-1-yl}methyl)-1-[3-(trifluoromethyl)pyridin-2-yl]-1H1,2,4-triazole-5-carboxamide hydrochloride] |
| 0.285 | 0.9 | 0.245 | CC1(O)CCN(C(=O)c2nc(Cn3nc(-c4ccc(Cl)cc4)n(C[C@H](O)C(F)(F)F)c3=O)nn2CCC(F)(F)F)C1 (single isomer, unassigned) [Example 23] |
| 0.185 | 1.6 | 0.3 | CC1(O)CCN(C(=O)c2nc(Cn3nc(-c4ccc(Cl)cc4)n(C[C@H](O)C(F)(F)F)c3=O)nn2CCC(F)(F)F)C1 (single isomer, unassigned) [Example 24] |
| 0.00066 | 124.2 | 0.082 | CC(C)(O)CNC(=O)c1nc(Cn2nc(-c3ccc(Cl)cc3)n(C[C@H](O)C(F)(F)F)c2=O)nn1-c1ncccc1OC(F)(F)F [Example 1, 3-({3-(4-Chlorophenyl)-5-oxo-4-[(2S)-3,3,3-trifluoro-2-hydroxypropyl]-4,5-dihydro-1H-1,2,4-triazol-1-yl}methyl)-N-(2-hydroxy-2-methylpropyl)-1-[3-(trifluoromethoxy)pyridin-2-yl]-1H1,2,4-triazole-5-carboxamide] |
| 0.00045 | 51.7 | 0.023 | CC(C)(O)CNC(=O)c1nc(Cn2nc(-c3ccc(Cl)cc3)n(C[C@H](O)C(F)(F)F)c2=O)nn1-c1cnccc1Cl [Example 2, 3-({3-(4-Chlorophenyl)-5-oxo-4-[(2S)-3,3,3-trifluoro-2-hydroxypropyl]-4,5-dihydro-1H-1,2,4-triazol-1-yl}methyl)-1-(4-chloropyridin-3-yl)-N-(2-hydroxy-2-methylpropyl)-1H-1,2,4-triazole-5-carboxamide] |
| 0.00083 | 569.7 | 0.47 | CC(C)(N)CNC(=O)c1nc(Cn2nc(-c3ccc(Cl)cc3)n(C[C@H](O)C(F)(F)F)c2=O)nn1-c1ncccc1OC(F)(F)F [Example 3, N-(2-Amino-2-methylpropyl)-3-({3-(4-chlorophenyl)-5-oxo-4-[(2S)-3,3,3-trifluoro-2-hydroxypropyl]-4,5-dihydro-1H-1,2,4-triazol-1-yl}methyl)-1-[3-(trifluoromethoxy)pyridin-2-yl]-1H-1,2,4-triazole-5-carboxamide] |
| 0.00049 | 845.4 | 0.41 | CC(C)(N)CNC(=O)c1nc(Cn2nc(-c3ccc(Cl)cc3)n(C[C@H](O)C(F)(F)F)c2=O)nn1-c1cnccc1Cl [Example 4, N-(2-Amino-2-methylpropyl)-3-({3-(4-chlorophenyl)-5-oxo-4-[(2S)-3,3,3-trifluoro-2-hydroxypropyl]-4,5-dihydro-1H-1,2,4-triazol-1-yl}methyl)-1-(4-chloropyridin-3-yl)-1H-1,2,4-triazole-5-carboxamide] |
| 0.0103 | 108.7 | 1.13 | CC1(O)CCN(C(=O)c2nc(Cn3nc(-c4ccc(Cl)cc4)n(C[C@H](O)C(F)(F)F)c3=O)nn2-c2ncccc2OC(F)(F)F)C1 (stereo partly drawn) [Example 5, 5-(4-Chlorophenyl)-2-[(5-[{3-hydroxy-3-methylpyrrolidin-1-yl]carbonyl}-1-[3-(trifluoromethoxy)pyridin-2-yl]-1H-1,2,4-triazol-3-yl)methyl]-4[(2S)-3,3,3-trifluoro-2-hydroxypropyl]-2,4-dihydro-3H-1,2,4-triazol-3-one] |
| 0.00245 | 146.9 | 0.36 | CC1(O)CCN(C(=O)c2nc(Cn3nc(-c4ccc(Cl)cc4)n(C[C@H](O)C(F)(F)F)c3=O)nn2-c2cnccc2Cl)C1 (stereo partly drawn) [Example 6] |
| 0.00255 | 131.4 | 0.335 | CC1(CNC(=O)c2nc(Cn3nc(-c4ccc(Cl)cc4)n(C[C@H](O)C(F)(F)F)c3=O)nn2-c2ncccc2OC(F)(F)F)COC1 [Example 7, 3-({3-(4-Chlorophenyl)-5-oxo-4-[(2S)-3,3,3-trifluoro-2-hydroxypropyl]-4,5-dihydro-1H-1,2,4-triazol-1-yl}methyl)-N-[(3-methyloxetan-3-yl)methyl]-1-[3-(trifluoromethoxy)pyridin-2-yl]-1H1,2,4-triazole-5-carboxamide] |
| 0.00068 | 144.9 | 0.0985 | CC1(CNC(=O)c2nc(Cn3nc(-c4ccc(Cl)cc4)n(C[C@H](O)C(F)(F)F)c3=O)nn2-c2cnccc2Cl)COC1 [Example 8, 3-({3-(4-Chlorophenyl)-5-oxo-4-[(2S)-3,3,3-trifluoro-2-hydroxypropyl]-4,5-dihydro-1H-1,2,4-triazol-1-yl}methyl)-1-(4-chloropyridin-3-yl)-N-[(3-methyloxetan-3-yl)methyl]-1H-1,2,4-triazole-5-carboxamide] |
